Molecules are shown by their SMILES.

The experiment concerns the target T1, human CCR1 (Homo sapiens, UniProt P32246).
T1 sequence (P32246 1-355): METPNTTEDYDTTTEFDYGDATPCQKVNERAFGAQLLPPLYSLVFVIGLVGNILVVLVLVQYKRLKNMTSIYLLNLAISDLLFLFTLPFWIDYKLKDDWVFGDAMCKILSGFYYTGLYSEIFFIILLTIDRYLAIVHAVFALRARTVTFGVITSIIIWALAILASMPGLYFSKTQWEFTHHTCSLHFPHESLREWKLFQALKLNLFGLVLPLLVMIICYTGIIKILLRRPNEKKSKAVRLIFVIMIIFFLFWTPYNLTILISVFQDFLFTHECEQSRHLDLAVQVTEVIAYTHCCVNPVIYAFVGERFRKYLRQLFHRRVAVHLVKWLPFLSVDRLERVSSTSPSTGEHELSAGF
Briefly: CCR1 binding protocol (SPA, [125I]-MIP-1α displacement). Conditions: cell membrane expressing human CCR1, 0.1 nM [125I]-MIP-1α, 4 hours at ambient temperature; read-out: Relative potency (IC50). As to the method: The following protocol was used to test compounds for CCR1 binding. A mixture, including scintillation proximity assay (SPA) beads and cell membrane expressing human CCR1, was prepared in assay buffer (130 mM NaCl+5 mM KCl+1 mM MnCl+50 mM Tris HCl at pH 7.4+0.1% bovine serum albumin (BSA)) at the ratio of 50 μg/ml membrane to 10 mg/ml SPA beads. 10 μl of the mixture was transferred to each well of a 384-well assay plate yielding a final concentration for the membrane and SPA beads of 0.5 μg/well and 100 μg/well, respectively
To generate different concentrations of the test compound, compound stocks were prepared using 10 step ½ log dilutions with a high concentration of 10 mM in DMSO and the lowest concentration being DMSO only without compound. An intermediate 40× dilution was then prepared in the assay buffer. The compound was then transferred at 10 μl/well to the assay plate. 0.5 nM [^125 I]-labeled macrophage inflammatory protein-1α (MIP-1α, an endogenous CCR1 ligand) in the assay buffer was transferred to the assay plate at 5 μl/well, for a final ligand concentration of 0.1 nM. The assay plate was then centrifuged at 2500 rpm for 2 minutes and incubated for 4 hours at ambient temperature, at which time the raw data was recorded using microbeta. The IC50 was then calculated using Graphpad Prism.
As for `Cc1nnc([C@H]2CCCN2C(=O)Nc2ccc3occc3c2)n1Cc1ccc(Cl)cc1` [Compound 122], the IC50 lay within 0.05 to 0.5 µM.
For `Cc1noc(-c2ccccc2)c1NC(=O)N1CCC[C@@H]1c1nnc(C)n1Cc1ccc(Cl)cc1` [Compound 123], the IC50 was under 0.05 µM.
For `Cc1nnc([C@H]2CCCN2C(=O)N[C@@H](C)c2cccnc2)n1Cc1ccc(Cl)cc1` [Compound 124] the value was under 0.05 µM.
`CC[C@H](NC(=O)N1CCC[C@@H]1c1nnc(C)n1Cc1ccc(Cl)cc1)c1ccc(C(F)(F)F)cc1` [Compound 125]: the IC50 is under 0.05 µM.
For `Cc1onc(-c2ccccc2)c1NC(=O)N1CCC[C@@H]1c1nnc(C)n1Cc1ccc(Cl)cc1` [Compound 126] the value was under 0.05 µM.
In the case of `Cc1nnc([C@H]2CCCN2C(=O)N[C@H]2CCc3cc(Cl)ccc32)n1Cc1ccc(Cl)cc1` [Compound 127] it was under 0.05 µM; in that of `Cc1nnc([C@H]2CCCN2C(=O)NC(c2ccccc2)c2ccccc2)n1Cc1ccc(Cl)cc1` [Compound 128], under 0.05 µM.
On to `Cc1nnc([C@H]2CCCN2C(=O)NC(c2ccccc2)c2ccc(Cl)cc2)n1Cc1ccc(Cl)cc1` (stereo partly drawn) [Compound 129], for which the IC50 is under 0.05 µM.
In the case of `Cc1nnc([C@H]2CCCN2C(=O)NCc2ccc(C(F)(F)F)cc2)n1Cc1ccc(Cl)cc1` [Compound 130] it was under 0.05 µM; in that of `Cc1nnc([C@H]2CCCN2C(=O)N[C@@H](C)c2ccc3ccccc3c2)n1Cc1ccc(Cl)cc1` [Compound 131], under 0.05 µM.
As to `Cc1nnc([C@H]2CCCN2C(=O)NC2CCc3cc(Cl)ccc32)n1Cc1ccc(Cl)cc1` (stereo partly drawn) [Compound 132], the IC50 was under 0.05 µM.
`Cc1nnc([C@H]2CCCN2C(=O)Nc2ccc(C(C)(C)C)cc2)n1Cc1ccc(Cl)cc1` [Compound 133]: the IC50 is under 0.05 µM.
In the case of `Cc1nnc([C@H]2CCCN2C(=O)NC2CCOc3cc(C#N)ccc32)n1Cc1ccc(Cl)cc1` (stereo partly drawn) [Compound 134] it was under 0.05 µM.
For `Cc1nnc([C@H]2CCCN2C(=O)Nc2ccc3ccccc3c2)n1Cc1ccc(Cl)cc1` [Compound 135] the value was under 0.05 µM; for `Cc1nnc([C@H]2CCCN2C(=O)Nc2ccc(OC(F)(F)F)cc2)n1Cc1ccc(Cl)cc1` [Compound 136], under 0.05 µM; for `Cc1nnc([C@H]2CCCN2C(=O)Nc2ccc3c(c2)N(C)C(=O)CO3)n1Cc1ccc(Cl)cc1` [Compound 137], 0.05 to 0.5 µM.
For `Cc1nnc([C@H]2CCCN2C(=O)N[C@H]2COCc3c(F)cccc32)n1Cc1ccc(Cl)cc1` [Compound 138], the IC50 lay within 0.05 to 0.5 µM.
On to `Cc1nnc([C@H]2CCCN2C(=O)NC(C)c2cccnc2)n1Cc1ccc(Cl)cc1` (stereo partly drawn) [Compound 139], for which the IC50 was in the range of 0.05 to 0.5 µM.
For the compound `Cc1nnc([C@H]2CCCN2C(=O)N[C@H](C)c2cccnc2)n1Cc1ccc(Cl)cc1` [Compound 140], the IC50 fell in the range of 0.05 to 0.5 µM.
In the case of `Cc1nnc([C@H]2CCCN2C(=O)N[C@@H]2COCc3c(F)cccc32)n1Cc1ccc(Cl)cc1` [Compound 141] it was 0.05 to 0.5 µM.
As for `Cc1nnc([C@H]2CCCN2C(=O)NC2COCc3c(F)cccc32)n1Cc1ccc(Cl)cc1` (stereo partly drawn) [Compound 142], the IC50 lay within 0.05 to 0.5 µM.
For `Cc1nnc([C@H]2CCCN2C(=O)N[C@@H]2CCc3cc(Cl)ccc32)n1Cc1ccc(Cl)cc1` [Compound 143] the value was 0.05 to 0.5 µM; for `Cc1nnc([C@H]2CCCN2C(=O)Nc2ccc(Cl)cc2F)n1Cc1ccc(Cl)cc1` [Compound 144], under 0.05 µM.
`Cc1nnc([C@H]2CCCN2C(=O)NCc2cccc(C(F)(F)F)c2)n1Cc1ccc(Cl)cc1` [Compound 145]: the IC50 fell in the range of 0.05 to 0.5 µM.
In the case of `Cc1nnc([C@H]2CCCN2C(=O)Nc2ccccc2C(F)(F)F)n1Cc1ccc(Cl)cc1` [Compound 146] it was 0.05 to 0.5 µM.
`Cc1nnc([C@H]2CCCN2C(=O)N[C@@H]2CCCOc3ccc(Cl)cc32)n1Cc1ccc(Cl)cc1` [Compound 147]: the IC50 is under 0.05 µM.
For `O=C(N[C@@H]1CCCOc2ccc(Cl)cc21)N1CCC[C@@H]1c1nncn1Cc1ccc(Cl)cc1` [Compound 148] the value was 0.05 to 0.5 µM.

For orientation: IC50 means the concentration that gives 50% inhibition.
